The text below walks through data of ChEMBL document CHEMBL3397020, “Synthesis of benzopentathiepin analogs and their evaluation as inhibitors of the phosphatase STEP” (Bioorg Med Chem Lett, 2015).

The target of test [1] is T1, Tyrosine-protein phosphatase non-receptor type 5 (Homo sapiens, UniProt P54829).
T1 sequence (P54829 whole entry): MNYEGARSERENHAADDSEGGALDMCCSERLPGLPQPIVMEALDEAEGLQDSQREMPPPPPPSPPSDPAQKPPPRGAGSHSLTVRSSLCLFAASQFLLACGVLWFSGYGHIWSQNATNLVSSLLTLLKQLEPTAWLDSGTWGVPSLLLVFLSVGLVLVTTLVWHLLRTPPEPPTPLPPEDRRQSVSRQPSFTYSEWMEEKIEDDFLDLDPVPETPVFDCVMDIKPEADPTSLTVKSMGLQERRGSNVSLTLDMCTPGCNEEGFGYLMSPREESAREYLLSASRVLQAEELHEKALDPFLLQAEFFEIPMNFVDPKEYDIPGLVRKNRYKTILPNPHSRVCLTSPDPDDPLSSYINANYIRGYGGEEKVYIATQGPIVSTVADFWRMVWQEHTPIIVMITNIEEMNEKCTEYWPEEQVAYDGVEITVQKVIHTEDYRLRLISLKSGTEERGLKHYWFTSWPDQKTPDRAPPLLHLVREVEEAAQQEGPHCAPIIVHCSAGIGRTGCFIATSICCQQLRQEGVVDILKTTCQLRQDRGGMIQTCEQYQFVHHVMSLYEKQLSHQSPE
As to the kind of experiment: Inhibition of STEP (unknown origin) pre-incubated for 10 mins before addition of p-nitrophenyl phosphate substrate in absence of GSH.

Test [2] has as its target T1, Tyrosine-protein phosphatase non-receptor type 5. As to the kind of experiment: Inhibition of STEP (unknown origin) in absence of GSH by p-nitrophenyl phosphate hydrolysis assay.
Test [3] shares this target. As to the kind of experiment: Inhibition of STEP (unknown origin) pre-incubated for 10 mins before addition of p-nitrophenyl phosphate substrate in presence of 1 mM GSH.
The target of test [4] is T2, Tyrosine-protein phosphatase non-receptor type 5 (Homo sapiens) (UniProt P54829).
T2 sequence (whole entry): T1 sequence (P54829 whole entry)
Description: Inhibition of STEP (unknown origin) assessed as second-order rate constant for enzyme inactivation in absence of GSH by p-nitrophenyl phosphate hydrolysis assay

Structures are written as SMILES.

The IC50 is the concentration needed to halve the response being measured. By Ki is commonly meant a dissociation constant, usually derived from enzyme kinetics or from competition with a known ligand. A high value points to weaker binding. In the case of `O=C(Nc1cc(C(F)(F)F)cc2c1SSSSS2)C(F)(F)F`, the IC50 in test [1] worked out at 24 nM; in test [3], 15000 nM. For the same compound, the Ki in test [2] came to 235 nM. Also, in test [4], the Kinact was determined as 0.0378 s⁻¹.
